Measured values published in patent publication US20240269139A1, “COMPOUNDS FOR TARGETED PROTEIN DEGRADATION OF KINASES” (DANA-FARBER CANCER INSTITUTE, INC., priority 2020, published 2024).
Read-outs that look alike come from different tables or passages of the source.

How the values were obtained:
Assay type in all cases: cell-based
[1] = target: T1, protein kinases (human kinome) (Homo sapiens, UniProt O14965)
T1 sequence (O14965 1-403): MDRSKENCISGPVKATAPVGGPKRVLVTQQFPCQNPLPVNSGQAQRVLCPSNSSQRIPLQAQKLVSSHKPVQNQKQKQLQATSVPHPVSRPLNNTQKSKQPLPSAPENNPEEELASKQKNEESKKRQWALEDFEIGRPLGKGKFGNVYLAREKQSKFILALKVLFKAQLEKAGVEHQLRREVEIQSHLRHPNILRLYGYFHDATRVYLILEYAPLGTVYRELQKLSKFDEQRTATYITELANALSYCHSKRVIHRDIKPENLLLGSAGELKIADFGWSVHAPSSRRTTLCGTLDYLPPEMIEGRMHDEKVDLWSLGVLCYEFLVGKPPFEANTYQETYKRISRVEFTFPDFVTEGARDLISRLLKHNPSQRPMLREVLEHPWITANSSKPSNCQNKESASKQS
Excerpt: (§1) Although development of targeted protein degraders requires a POI binder, among already-liganded proteins such as kinases, it was hypothesized that different targets would have a different propensity for current approaches to degrader-mediated destruction, which was termed ‘degradability’. […] It was rationalized that the probability of identifying the same kinase as a false positive in multiple treatments is low, therefore this analysis served to also assess the robustness of our data and subsequent interpretations. […] Overall, 62 protein kinases were degraded in more than 10 independent treatments, and remarkably, 9 of these (CDK4, AURKA, FER, WEE1, BLK. LIMK2, CDK6, GAK, LIMK1) were each degraded in at least 40 of the 154 independent treatments, emphasizing their predisposition to induced degradation (FIG. 1G; Appendix I).
(§2) Next, the frequency of degradation assessment was corrected for over-representation of molecules in the full dataset by omitting replicate profiling of compounds under different experimental conditions, to remove any bias. […] Unsurprisingly, the top degradable kinases mirror those from the previous analysis (CDK4, AURKA, FER, WEE1, BLK), confirming that in sufficiently large datasets, even with over-representation of certain molecules, frequency of degradation is a good measure of general tractability.

[2] = target: protein kinases (human kinome) (Homo sapiens, UniProt P16591); settings: for logFC of FER (P16591-1): down; for logFC of FER: FER P16591-1
Sequence of protein kinases (human kinome) (Homo sapiens, UniProt P16591) (P16591 whole entry): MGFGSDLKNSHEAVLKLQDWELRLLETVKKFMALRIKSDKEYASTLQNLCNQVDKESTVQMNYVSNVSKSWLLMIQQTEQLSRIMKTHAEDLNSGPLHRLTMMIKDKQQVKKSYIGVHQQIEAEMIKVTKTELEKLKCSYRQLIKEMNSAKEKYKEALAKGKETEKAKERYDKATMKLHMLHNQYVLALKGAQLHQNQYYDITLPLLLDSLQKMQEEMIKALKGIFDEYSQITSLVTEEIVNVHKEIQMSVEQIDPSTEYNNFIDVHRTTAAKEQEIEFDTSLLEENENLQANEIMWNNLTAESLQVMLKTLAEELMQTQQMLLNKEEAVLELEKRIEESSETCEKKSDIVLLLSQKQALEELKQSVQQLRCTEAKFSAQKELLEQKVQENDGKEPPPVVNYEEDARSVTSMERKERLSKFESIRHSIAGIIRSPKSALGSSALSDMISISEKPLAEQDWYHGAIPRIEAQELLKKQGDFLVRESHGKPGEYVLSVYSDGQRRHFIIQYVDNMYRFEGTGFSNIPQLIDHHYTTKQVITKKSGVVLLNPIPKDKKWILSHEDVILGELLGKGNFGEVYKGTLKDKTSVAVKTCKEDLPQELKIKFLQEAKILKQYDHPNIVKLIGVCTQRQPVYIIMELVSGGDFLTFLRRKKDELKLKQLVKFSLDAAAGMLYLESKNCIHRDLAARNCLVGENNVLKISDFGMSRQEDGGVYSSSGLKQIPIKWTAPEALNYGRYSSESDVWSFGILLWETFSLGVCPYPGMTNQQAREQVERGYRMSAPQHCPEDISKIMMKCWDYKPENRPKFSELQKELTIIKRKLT
Excerpt: as §1, §2

[3] = target: protein kinases (human kinome) (Homo sapiens, UniProt P24941)
Excerpt: as §1, §2

[4] = target: protein kinases (human kinome) (Homo sapiens, UniProt P30291); settings: experiment wp016
Excerpt: as §1, §2

[5] = target: protein kinases (human kinome) (Homo sapiens, UniProt P50613); settings: for logFC: CDK7 (P50613) protein abundance, degrader vs DMSO, down; for logFC CDK7: CDK7 P50613
Sequence of protein kinases (human kinome) (Homo sapiens, UniProt P50613) (P50613 whole entry): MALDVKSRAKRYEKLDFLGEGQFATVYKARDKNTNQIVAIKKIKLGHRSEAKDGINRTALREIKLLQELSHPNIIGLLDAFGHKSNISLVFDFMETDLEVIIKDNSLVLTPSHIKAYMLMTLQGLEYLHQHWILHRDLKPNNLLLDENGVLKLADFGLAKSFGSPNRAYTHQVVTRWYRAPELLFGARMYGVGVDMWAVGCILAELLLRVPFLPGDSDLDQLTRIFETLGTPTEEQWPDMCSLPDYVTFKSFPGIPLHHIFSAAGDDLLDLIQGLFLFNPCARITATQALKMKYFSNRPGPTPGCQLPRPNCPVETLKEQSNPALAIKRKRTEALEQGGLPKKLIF
Excerpt: as §1, §2

[6] = target: protein kinases (human kinome) (Homo sapiens, UniProt P51451)
Excerpt: as §1, §2

[7] = target: protein kinases (human kinome) (Homo sapiens, UniProt P53671); settings: experiment wp016
Excerpt: as §1, §2

[8] = target: protein kinases (human kinome) (Homo sapiens, UniProt Q00535)
Sequence of protein kinases (human kinome) (Homo sapiens, UniProt Q00535) (Q00535 whole entry): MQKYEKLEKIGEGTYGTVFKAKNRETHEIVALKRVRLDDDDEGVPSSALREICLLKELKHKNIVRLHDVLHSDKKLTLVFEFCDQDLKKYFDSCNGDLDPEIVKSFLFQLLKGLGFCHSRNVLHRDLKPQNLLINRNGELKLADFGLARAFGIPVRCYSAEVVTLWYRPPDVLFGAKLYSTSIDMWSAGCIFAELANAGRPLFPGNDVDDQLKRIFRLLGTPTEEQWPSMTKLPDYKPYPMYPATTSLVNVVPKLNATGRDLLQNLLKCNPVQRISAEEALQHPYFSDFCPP
Excerpt: as §1, §2

[9] = target: protein kinases (human kinome) (Homo sapiens, UniProt Q00537); settings: for logFC of CDK17: Accession Q00537; for logFC CDK17 (Q00537): direction of change down
Sequence of protein kinases (human kinome) (Homo sapiens, UniProt Q00537) (Q00537 whole entry): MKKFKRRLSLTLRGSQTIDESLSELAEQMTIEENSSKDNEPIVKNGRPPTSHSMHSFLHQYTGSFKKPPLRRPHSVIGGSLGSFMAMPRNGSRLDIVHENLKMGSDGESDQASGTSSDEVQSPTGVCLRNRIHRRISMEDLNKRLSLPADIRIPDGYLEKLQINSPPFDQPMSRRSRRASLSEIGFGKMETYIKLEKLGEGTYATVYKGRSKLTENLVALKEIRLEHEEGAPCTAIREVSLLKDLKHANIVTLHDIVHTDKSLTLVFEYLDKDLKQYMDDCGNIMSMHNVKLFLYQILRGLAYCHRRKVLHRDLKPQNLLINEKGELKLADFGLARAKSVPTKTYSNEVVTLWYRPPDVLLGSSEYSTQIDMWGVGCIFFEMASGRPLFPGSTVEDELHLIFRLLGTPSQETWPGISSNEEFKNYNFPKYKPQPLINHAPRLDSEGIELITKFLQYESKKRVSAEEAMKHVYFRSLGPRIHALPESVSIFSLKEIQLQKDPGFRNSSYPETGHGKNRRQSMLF
Excerpt: as §1, §2

[10] = target: T2, protein kinases (human kinome) (Homo sapiens, UniProt Q08881); settings: experiment wp016
T2 sequence (Q08881 1-620): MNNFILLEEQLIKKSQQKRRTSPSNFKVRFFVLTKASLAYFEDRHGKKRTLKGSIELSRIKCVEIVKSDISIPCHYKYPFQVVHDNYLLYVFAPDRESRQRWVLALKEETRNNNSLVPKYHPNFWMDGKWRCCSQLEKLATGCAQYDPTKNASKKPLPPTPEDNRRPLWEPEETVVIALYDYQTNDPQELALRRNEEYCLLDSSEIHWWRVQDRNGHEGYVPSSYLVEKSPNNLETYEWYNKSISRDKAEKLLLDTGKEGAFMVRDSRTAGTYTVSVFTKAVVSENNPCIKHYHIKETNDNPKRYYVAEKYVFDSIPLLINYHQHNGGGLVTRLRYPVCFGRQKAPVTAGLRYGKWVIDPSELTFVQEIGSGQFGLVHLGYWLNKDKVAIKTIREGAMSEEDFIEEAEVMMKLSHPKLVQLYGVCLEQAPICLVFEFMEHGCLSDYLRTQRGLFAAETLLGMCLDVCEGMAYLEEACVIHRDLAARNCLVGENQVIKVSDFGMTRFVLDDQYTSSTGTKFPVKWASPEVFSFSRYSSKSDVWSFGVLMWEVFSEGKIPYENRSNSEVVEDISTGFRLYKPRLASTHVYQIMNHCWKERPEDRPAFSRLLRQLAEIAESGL
Excerpt: as §1, §2

[11] = target: protein kinases (human kinome) (Homo sapiens, UniProt Q14289)
Excerpt: as §1, §2

[12] = target: protein kinases (human kinome) (Homo sapiens, UniProt Q2M2I8)
Sequence of protein kinases (human kinome) (Homo sapiens, UniProt Q2M2I8) (Q2M2I8 whole entry): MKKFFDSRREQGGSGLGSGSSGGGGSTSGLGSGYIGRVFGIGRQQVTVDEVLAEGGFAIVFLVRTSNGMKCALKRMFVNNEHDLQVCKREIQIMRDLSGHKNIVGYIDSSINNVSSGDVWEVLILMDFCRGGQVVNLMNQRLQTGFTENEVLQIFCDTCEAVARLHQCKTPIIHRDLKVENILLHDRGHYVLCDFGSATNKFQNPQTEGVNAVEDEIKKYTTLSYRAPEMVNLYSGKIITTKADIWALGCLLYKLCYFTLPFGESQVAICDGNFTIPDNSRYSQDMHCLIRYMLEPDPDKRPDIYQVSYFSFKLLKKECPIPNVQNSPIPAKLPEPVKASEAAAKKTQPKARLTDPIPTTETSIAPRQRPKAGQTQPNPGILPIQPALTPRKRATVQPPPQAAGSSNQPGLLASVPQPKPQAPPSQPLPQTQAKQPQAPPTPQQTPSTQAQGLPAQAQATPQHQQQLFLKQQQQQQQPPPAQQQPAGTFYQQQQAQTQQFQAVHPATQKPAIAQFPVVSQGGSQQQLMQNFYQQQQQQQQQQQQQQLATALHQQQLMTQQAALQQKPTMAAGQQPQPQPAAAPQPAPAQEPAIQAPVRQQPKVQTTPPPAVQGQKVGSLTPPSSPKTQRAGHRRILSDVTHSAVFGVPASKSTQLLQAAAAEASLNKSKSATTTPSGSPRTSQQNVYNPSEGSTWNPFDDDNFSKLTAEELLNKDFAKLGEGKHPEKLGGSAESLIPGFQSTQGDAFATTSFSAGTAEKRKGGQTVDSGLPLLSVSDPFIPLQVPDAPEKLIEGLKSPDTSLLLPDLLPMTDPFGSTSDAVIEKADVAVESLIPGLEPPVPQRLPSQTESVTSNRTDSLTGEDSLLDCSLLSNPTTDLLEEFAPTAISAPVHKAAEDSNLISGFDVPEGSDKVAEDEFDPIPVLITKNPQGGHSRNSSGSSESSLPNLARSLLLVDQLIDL
Excerpt: as §1, §2

[13] = target: protein kinases (human kinome) (Homo sapiens, UniProt Q9NYV4)
Sequence of protein kinases (human kinome) (Homo sapiens, UniProt Q9NYV4) (Q9NYV4 whole entry): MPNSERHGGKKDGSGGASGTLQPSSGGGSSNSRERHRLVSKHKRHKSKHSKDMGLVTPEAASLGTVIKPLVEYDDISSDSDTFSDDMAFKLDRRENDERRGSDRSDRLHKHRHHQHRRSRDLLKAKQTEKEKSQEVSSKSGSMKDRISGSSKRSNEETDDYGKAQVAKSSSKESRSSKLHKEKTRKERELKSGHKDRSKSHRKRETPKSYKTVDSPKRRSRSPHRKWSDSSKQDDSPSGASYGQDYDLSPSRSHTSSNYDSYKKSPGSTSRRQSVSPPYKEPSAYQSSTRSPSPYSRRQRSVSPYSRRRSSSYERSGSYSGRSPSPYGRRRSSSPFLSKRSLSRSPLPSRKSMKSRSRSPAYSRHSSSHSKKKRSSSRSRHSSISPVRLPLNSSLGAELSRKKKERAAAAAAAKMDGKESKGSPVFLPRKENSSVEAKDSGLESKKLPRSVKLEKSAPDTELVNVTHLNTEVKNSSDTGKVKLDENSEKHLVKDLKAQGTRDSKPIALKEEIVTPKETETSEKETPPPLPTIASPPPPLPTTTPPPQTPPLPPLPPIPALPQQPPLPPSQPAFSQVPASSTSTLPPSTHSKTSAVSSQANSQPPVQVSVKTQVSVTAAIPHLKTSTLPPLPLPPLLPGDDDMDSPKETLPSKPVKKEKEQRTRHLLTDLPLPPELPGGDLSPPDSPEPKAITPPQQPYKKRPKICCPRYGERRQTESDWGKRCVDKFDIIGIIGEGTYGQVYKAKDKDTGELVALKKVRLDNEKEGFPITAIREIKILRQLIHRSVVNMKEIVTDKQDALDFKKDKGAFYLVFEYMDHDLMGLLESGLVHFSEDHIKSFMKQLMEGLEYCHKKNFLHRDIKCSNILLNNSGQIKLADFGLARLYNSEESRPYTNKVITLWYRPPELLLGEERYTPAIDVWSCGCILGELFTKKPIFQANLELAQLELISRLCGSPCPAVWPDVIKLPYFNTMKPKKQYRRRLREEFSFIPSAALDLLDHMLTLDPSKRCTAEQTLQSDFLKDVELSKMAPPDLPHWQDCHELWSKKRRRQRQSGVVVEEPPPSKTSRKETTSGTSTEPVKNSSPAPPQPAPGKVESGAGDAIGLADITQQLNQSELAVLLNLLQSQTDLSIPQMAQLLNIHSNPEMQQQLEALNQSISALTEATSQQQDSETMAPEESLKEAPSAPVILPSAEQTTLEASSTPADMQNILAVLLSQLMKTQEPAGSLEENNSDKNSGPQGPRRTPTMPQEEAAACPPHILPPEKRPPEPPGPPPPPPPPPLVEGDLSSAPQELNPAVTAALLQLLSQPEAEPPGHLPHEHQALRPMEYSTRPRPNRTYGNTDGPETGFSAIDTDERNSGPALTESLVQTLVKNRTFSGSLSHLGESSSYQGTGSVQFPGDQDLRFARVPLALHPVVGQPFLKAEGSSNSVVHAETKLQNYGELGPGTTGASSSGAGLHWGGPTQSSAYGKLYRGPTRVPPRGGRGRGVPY
Excerpt: as §1, §2

[14] = tested on: protein kinases (human kinome); settings: for logFC: CDK9 (P50750-2) protein abundance, degrader vs DMSO, down; for logFC CSNK1D: experiment wp114; for logFC GSK3B: experiment wp056
Excerpt: as §1, §2

[15] = target: protein kinases (human kinome) (Homo sapiens, UniProt Q05397); settings: experiment wp011
Excerpt: as §1, §2

[16] = target: protein kinases (human kinome) (Homo sapiens, UniProt P06493); settings: CDK1 P06493; experiment wp146
Excerpt: as §1, §2

[17] = target: protein kinases (human kinome) (Homo sapiens, UniProt P45984); settings: MAPK9 P45984-1; experiment wp146
Sequence of protein kinases (human kinome) (Homo sapiens, UniProt P45984) (P45984 whole entry): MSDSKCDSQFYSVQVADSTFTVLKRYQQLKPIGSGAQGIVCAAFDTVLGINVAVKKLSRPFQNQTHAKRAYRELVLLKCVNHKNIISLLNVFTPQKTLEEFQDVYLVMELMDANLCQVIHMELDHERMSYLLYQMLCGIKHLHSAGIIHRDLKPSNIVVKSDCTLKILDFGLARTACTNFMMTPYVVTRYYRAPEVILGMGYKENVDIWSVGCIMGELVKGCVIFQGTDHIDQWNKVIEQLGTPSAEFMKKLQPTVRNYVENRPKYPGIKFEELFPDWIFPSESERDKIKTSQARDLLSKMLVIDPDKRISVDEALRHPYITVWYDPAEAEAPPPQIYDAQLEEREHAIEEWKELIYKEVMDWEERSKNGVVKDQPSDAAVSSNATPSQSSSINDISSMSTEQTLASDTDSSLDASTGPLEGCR
Excerpt: as §1, §2

[18] = target: protein kinases (human kinome) (Homo sapiens, UniProt Q8TDR2); settings: experiment wp114
Excerpt: as §1, §2

[19] = target: protein kinases (human kinome) (Homo sapiens, UniProt P49840); settings: GSK3A P49840; experiment wp056
Excerpt: as §1, §2

[20] = target: protein kinases (human kinome) (Homo sapiens, UniProt Q9NSY1); settings: BMP2K Q9NSY1; experiment wp056
Excerpt: as §1, §2

[21] = experiment wp016, direction of change down
[22] = experiment wp146, direction of change down

For `CC(C)S(=O)(=O)c1ccccc1Nc1nc(Nc2ccc(N3CCN(CCOCCOCCOCCNC(=O)CNc4cccc5c4C(=O)N(C4CCC(=O)NC4=O)C5=O)CC3)cc2)ncc1Cl` (centres unmarked) [SK.3.87], the “logFC AURKA (O14965)” value ([1]; experiment wp016) was −1.381, the “logFC of FER (P16591-1)” value ([2]; Experiment wp016) was −1.97 and the “logFC of FER” value ([2]; experiment wp016) was −1.97. The “logFC CDK2 (P24941-1)” value ([3]; experiment wp016) was −0.3797, the “logFC CDK2 (P24941-1)” value [3, 21] was −0.3797 and the “logFC WEE1 (P30291-1)” value [4] was −0.9273. The logFC [5] was −0.5325, the “logFC CDK7” value ([5]; experiment wp016) was −0.5325 and the “logFC of BLK” value ([6]; BLK P51451, experiment wp016) was −0.9329. The “logFC of BLK (P51451)” value ([6]; Experiment wp016, down) was −0.9329, the “logFC LIMK2” value ([7]; LIMK2 (P53671), down) was −0.378 and the “logFC of LIMK2” value ([7]; LIMK2 P53671) was −0.378. For the same compound, the “logFC of CDK5” value ([8]; Accession Q00535, experiment wp016) was −0.5732, the “logFC CDK5 (Q00535)” value [8, 21] was −0.5732 and the “logFC of CDK17” value ([9]; experiment wp016) was −0.6139. The “logFC CDK17 (Q00537)” value ([9]; experiment wp016) was −0.6139, the “logFC ITK (Q08881)” value [10] was −1.868 and the “logFC ITK (Q08881)” value ([10]; direction of change down) was −1.868. For the same compound, the logFC ([11]; PTK2B (Q14289-1) protein abundance, degrader vs DMSO, down) was −3.217, the “logFC PTK2B” value ([11]; PTK2B, accession Q14289-1, experiment wp016, direction of change down) was −3.217 and the “logFC AAK1” value ([12]; AAK1 (Q2M218-1), experiment wp016, down) was −0.7307. For the same compound, the “logFC AAK1” value ([12]; AAK1, accession Q2M218-1, experiment wp016, direction of change down) was −0.7307, the “logFC CDK12” value ([13]; Accession Q9NYV4-1, experiment wp016) was −0.5073 and the “logFC CDK12” value ([13]; CDK12 (Q9NYV4-1), experiment wp016) was −0.5073. The logFC [14] was −0.4714, the “logFC LCK” value ([14]; LCK, accession P06239-3, experiment wp016, direction of change down) was −0.3484 and the “logFC CDK9 (P50750-2)” value ([14]; experiment wp016) was −0.4714. The “logFC LCK (P06239-3)” value [14, 21] was −0.3484.

In the case of `COc1cc(N2CCN(CCOCCOCCNC(=O)CNc3cccc4c3C(=O)N(C3CCC(=O)NC3=O)C4=O)CC2)ccc1Nc1ncc(Cl)c(Nc2ccccc2S(=O)(=O)C(C)C)n1` (centres unmarked) [TL13.12], the “logFC AURKA (O14965)” value ([1]; experiment wp011) is reported as −0.5988, the “logFC of FER (P16591-1)” value ([2]; Experiment wp011) is reported as −0.8459 and the “logFC of FER” value ([2]; experiment wp011) is reported as −0.8459. For the same compound, the “logFC PTK2” value ([15]; Accession Q05397, direction down) was −1.365 and the “logFC PTK2” value ([15]; PTK2 Q05397) was −1.365.

`NC(=O)c1c(F)cccc1Nc1nc(NC2CCN(S(=O)(=O)CCNC(=O)CCCCCCCCOc3cccc4c3C(=O)N(C3CCC(=O)NC3=O)C4=O)CC2)ncc1Br` (centres unmarked) [TMX.01.160] was tested, and the “logFC AURKA (O14965)” value ([1]; experiment wp146) was −2.621, the logFC [16] was −1.423 and the “logFC CDK1” value [16] was −1.423. For the same compound, the “logFC CDK2 (P24941-1)” value ([3]; experiment wp146) was −1.971, the “logFC CDK2 (P24941-1)” value [3, 22] was −1.971 and the logFC [17] was −3.32. The “logFC MAPK9” value [17] was −3.32, the logFC [5] was −0.601 and the “logFC CDK7” value ([5]; experiment wp146) was −0.601. For the same compound, the “logFC CDK5 (Q00535)” value ([8]; experiment wp146) was −2.901, the “logFC CDK5 (Q00535)” value [8, 22] was −2.901 and the “logFC of CDK17” value ([9]; experiment wp146) was −1.627. The “logFC CDK17 (Q00537)” value ([9]; experiment wp146) was −1.627, the “logFC CDK12” value ([13]; Accession Q9NYV4-1, experiment wp146) was −0.5118 and the “logFC CDK12” value ([13]; CDK12 (Q9NYV4-1), experiment wp146) was −0.5118. For the same compound, the logFC [14] was −1.181, the “logFC MAPK8 (P45983-4)” value ([14]; Experiment wp146, direction down) was −2.112 and the “logFC MAPK8” value ([14]; MAPK8 P45983-4, experiment wp146) was −2.112. For the same compound, the “logFC RPS6KA1” value ([14]; RPS6KA1 (Q15418-2), experiment wp146) was −0.4317, the “logFC CDK9 (P50750-2)” value ([14]; experiment wp146) was −1.181 and the “logFC CDK16 (Q00536-2)” value ([14]; experiment wp146) was −1.11. The “logFC RPS6KA1 (Q15418-2)” value ([14]; experiment wp146) was −0.4317.

In the case of `Nc1ncc(-c2ccc(S(=O)(=O)N(CCCNC(=O)CCOCCOCCOCCOCCOCCNc3cccc4c3C(=O)N(C3CCC(=O)NC3=O)C4=O)C3CC3)cc2)cc1-c1ccc2c(c1)CCNC2=O` (centres unmarked) [WH.10414.099], the “logFC STK35” value ([18]; Accession Q8TDR2, direction down) is reported as −0.8902, the “logFC STK35” value ([18]; STK35 (Q8TDR2)) is reported as −0.8902 and the “logFC CSNK1D” value ([14]; Accession P48730-2, direction down) is reported as −0.6187. The “logFC CSNK1D” value ([14]; CSNK1D P48730-2) was −0.6187.

In the case of `N#CCc1ccc(Nc2nc(NCCCNC(=O)CCCCCCNC(=O)COc3cccc4c3C(=O)N(C3CCC(=O)NC3=O)C4=O)cc(Nc3cc(C4CC4)n[nH]3)n2)cc1` (centres unmarked) [SB1.G.190], the “logFC AURKA (O14965)” value ([1]; experiment wp056) is reported as −0.843, the logFC [19] is reported as −0.8894 and the “logFC GSK3A” value [19] is reported as −0.8894. The “logFC AAK1” value ([12]; AAK1 (Q2M218-1), experiment wp056, down) was −1.489, the “logFC AAK1” value ([12]; AAK1, accession Q2M218-1, experiment wp056, direction of change down) was −1.489 and the logFC [20] was −0.3508. The “logFC BMP2K” value [20] was −0.3508, the “logFC GSK3B” value ([14]; Accession P49841-2, direction down) was −0.631 and the “logFC GSK3B” value ([14]; GSK3B P49841-2) was −0.631.
